Like-named read-outs stand apart in the source and are kept apart here.
Assays:
[1] = MTT half-maximal cytotoxic concentration (CC50); details: dog
[2] = system: A549, Vero E6, MDCK, HRT18G, MA04, MARC, and LLC-PK cells
Experimental: (§1) To determine the half-maximal cytotoxic concentration (CC50) of the lipase inhibitors atglistatin and CAY10499, Vero E6, A549, HRT-18G, MA104, MARC-145, and LLC-PK cells were prepared in monolayers in 96-well plates.
(§2) The cells were treated with the drugs for 24 hours, and the culture media was removed before addition of 200 μL of 3-(4,5-dimethylthiazol-2-yl)-2,5-diphenyl tetrazolium bromide (MTT) solution to each well. The plates were then incubated for 4 hours in a 5% CO2 incubator at 36° C. Subsequently, 150 μL of DMSO solution was added to each well and incubated at 20° C. The optical density (OD) was measured at 570 nm wavelength using an enzyme-linked immunosorbent assay (ELISA) reader.

A549 cells [3] = system: A549 cells
Experimental: as §1, §2

LLC-PK cells [4] = system: LLC-PK cells
Experimental: as §1, §2

Vero E6 cells [5] = system: Vero E6 cells
Experimental: as §1, §2

MARC cells = assay: MTT half-maximal cytotoxic concentration (CC50); details: MARC; drugs for 24 hours, MTT
Experimental: as §1, §2

LLC-PK cells [6] = assay: MTT half-maximal cytotoxic concentration (CC50); details: LLC-PK; drugs for 24 hours, MTT
Experimental: as §1, §2

Vero E6 cells [7] = assay: MTT half-maximal cytotoxic concentration (CC50); details: Vero E6; drugs for 24 hours, MTT
Experimental: as §1, §2

MA104 cells = assay: MTT half-maximal cytotoxic concentration (CC50); details: MA104; drugs for 24 hours, MTT
Experimental: as §1, §2

A549 cells [8] = assay: MTT half-maximal cytotoxic concentration (CC50); details: drugs for 24 hours
Experimental: as §1, §2

[9] = MTT half-maximal cytotoxic concentration (CC50); details: African green monkey
Experimental: as §1, §2

[10] = MTT half-maximal cytotoxic concentration (CC50); details: African green monkey; remark: listed apart in the source
Experimental: as §1, §2

Experimental for HRT18G cells: as §1, §2

CN(C)C(=O)Nc1cccc(-c2ccc(N(C)C)cc2)c1 [Atglistatin, 3-(4′-(dimethylamino)-(1,1′-biphenyl)-3-yl)-1,1-dimethylurea]
CC50 at 24 h [1]: 269 µM

COc1nn(-c2ccc(NC(=O)OCc3ccccc3)c(C)c2)c(=O)o1 [CAY10499]
CC50 [2]: 101 to 110 µM | CC50 (A549 cells [3]): 106 µM | CC50 (HRT18G cells): 104 µM | CC50 (LLC-PK cells [4]): 109 µM | CC50 (Vero E6 cells [5]): 102 µM

CCN(CC)C(=O)Nc1cccc(-c2ccc(N(C)C)cc2)c1 [DABPU-DE]
CC50 (MARC cells): 216 µM | CC50 (LLC-PK cells [6]): 226 µM | CC50 (Vero E6 cells [7]): 222 µM | CC50 (MA104 cells): 209 µM | CC50 (A549 cells [8]): 213 µM

CCN(C)C(=O)Nc1cccc(-c2ccc(N(C)C)cc2)c1 [DABPU-EM, 3-(4′-(dimethylamino)-(1,1′-biphenyl)-3-yl)-1-ethyl-1-methylurea]
CC50 at 24 h [9]: 210 µM | CC50 at 24 h [10]: 210 µM

Reference: US20240285557A1, “PHARMACEUTICAL COMPOSITION COMPRISING LIPASE INHIBITOR FOR TREATMENT OR TREATMENT OF RNA VIRAL INFECTIONS” (priority 2021, published 2024)
